Data reported in patent US9637493B2, “Substituted pyrrolopyrimidines as HDM2 inhibitors” (Merck Sharp & Dohme Corp., priority 2012, dated 2017).

Molecular target: HDM2 (Homo sapiens (Human), UniProt Q00987)
Assay: HDM2 FRET assay (inhibition of p53 peptide binding to HDM2)
Conditions: truncated HDM2 residues 17 to 125, 0.5 nM; FITC labeled 8-mer peptide 3 nM; two hour incubation at room temperature
Method: Methods: An HDM2 FRET assay was developed to assess the compounds' inhibitory activity towards binding of p53 protein. […] (containing p53 binding surface, Science (1994) 265, 346-355), with N-terminal His and Thioredoxin tag was generated in pET32a expression vector and expressed in E. coli strain BL21(DE3)Rosetta. Protein was purified using Ni-affinity chromatography, followed by size exclusion chromatography using Superdex 75 26/60 column. […] After two hour incubation at room temperature in a humidified chamber plates were read on EnVision plate reader with the following settings: excitation: UV, […], two emission filters: 520 nm and 495 nm respectively. […] IC50 DETERMINATIONS: Dose-response curves were plotted from the inhibition data, from 10 point serial dilutions of inhibitory compounds. Concentration of compound was plotted against em520/Cem495 ratio signal. To generate IC50 values, the dose-response curves were fitted to a standard sigmoidal curve and IC50 values were derived by nonlinear regression analysis.

Sequence of HDM2 (Q00987 17-125): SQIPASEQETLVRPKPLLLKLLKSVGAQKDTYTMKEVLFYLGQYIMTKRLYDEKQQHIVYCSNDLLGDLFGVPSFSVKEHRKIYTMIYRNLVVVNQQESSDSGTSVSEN

In order of rising IC50:
1. C[C@H]1CC[C@H](Cn2c(C(F)c3ccccc3F)cc3nc(C(=O)O)nc(-c4cncc(Cl)c4)c32)CC1 (mixture of isomers) [Example 8.1, 4-(5-chloropyridin-3-yl)-6-[fluoro(2-fluorophenyl)methyl]-5-[(trans-4-methylcyclohexyl)methyl]-5H-pyrrolo[3,2-d]pyrimidine-2-carboxylic acid]  3 nM
2. Cc1cccc(-c2cc3nc(C(=O)O)nc(N[C@H](C)C4CCC4)c3n2Cc2ccc(C(F)(F)F)cc2N)c1 [Example 2.1, 5-[2-amino-4-(trifluoromethyl)benzyl]-4-{[(1R)-1-cyclobutylethyl]amino}-6-(3-methylphenyl)-5H-pyrrolo[3,2-d]pyrimidine-2-carboxylic acid]  11 nM
3. Cc1cccc(-c2cc3nc(C(=O)O)nc(N[C@H](C)C4CCC4)c3n2Cc2ccc(Br)c(F)c2)c1 [Example 3.4, 5-(4-bromo-3-fluorobenzyl)-4-{[(1R)-1-cyclobutylethyl]amino}-6-(3-methylphenyl)-5H-pyrrolo[3,2-d]pyrimidine-2-carboxylic acid]  15 nM
4. Cc1ccnc(-c2cc3nc(C(=O)O)nc(N[C@H](C)C4CCC4)c3n2Cc2ccc(C(F)(F)F)cc2)c1 [Example 1.9, 4-{[(1R)-1-cyclobutylethyl]amino}-6-(4-methylpyridin-2-yl)-5-[4-(trifluoromethyl)benzyl]-5H-pyrrolo[3,2-d]pyrimidine-2-carboxylic acid]  18 nM
5. Cc1cccc(-c2cc3nc(C(=O)O)nc(N[C@H](C)C4CCC4)c3n2Cc2ccc(Cl)c(F)c2)c1 [Example 3.1, 5-(4-chloro-3-fluorobenzyl)-4-{[(1R)-1-cyclobutylethyl]amino}-6-(3-methylphenyl)-5H-pyrrolo[3,2-d]pyrimidine-2-carboxylic acid]  21 nM
6. CC(C)c1ccnc(-c2cc3nc(C(=O)O)nc(N[C@H](C)C4CCC4)c3n2Cc2ccc(C(F)(F)F)cc2)c1 [Example 1.10, 4-{[(1R)-1-cyclobutylethyl]amino}-6-[4-(1-methylethyl)pyridin-2-yl]-5-[4-(trifluoromethyl)benzyl]-5H-pyrrolo[3,2-d]pyrimidine-2-carboxylic acid]  26 nM
7. COc1ccc(C)cc1-c1cc2nc(C(=O)O)nc(N[C@H](C)C3CCC3)c2n1Cc1ccc(C(F)(F)F)cc1 [Example 1.5, 4-{[(1R)-1-cyclobutylethyl]amino}-6-(2-methoxy-5-methylphenyl)-5-[4-(trifluoromethyl)benzyl]-5H-pyrrolo[3,2-d]pyrimidine-2-carboxylic acid]  42 nM
8. Cc1c(-c2cc(C(C)C)ccn2)n(Cc2ccc(C(F)(F)F)cc2)c2c(N[C@H](C)C3CCC3)nc(C(=O)O)nc12 [Example 1.11, 4-{[(1R)-1-cyclobutylethyl]amino}-7-methyl-6-[4-(1-methylethyl)pyridin-2-yl]-5-[4-(trifluoromethyl)benzyl]-5H-pyrrolo[3,2-d]pyrimidine-2-carboxylic acid]  50 nM
9. Cc1ccc(F)c(-c2cc3nc(C(=O)O)nc(N[C@H](C)C4CCC4)c3n2Cc2ccc(C(F)(F)F)cc2)c1 [Example 1.1, (R)-4-((1-cyclobutylethyl)amino)-6-(2-fluoro-5-methylphenyl)-5-(4-(trifluoromethyl)benzyl)-5H-pyrrolo[3,2-d]pyrimidine-2-carboxylic acid]  62 nM
10. Cc1ccc(Cl)c(-c2cc3nc(C(=O)O)nc(N[C@H](C)C4CCC4)c3n2Cc2ccc(C(F)(F)F)cc2)c1 [Example 1.7, 6-(2-chloro-5-methylphenyl)-4-{[(1R)-1-cyclobutylethyl]amino}-5-[4-(trifluoromethyl)benzyl]-5H-pyrrolo[3,2-d]pyrimidine-2-carboxylic acid]  63 nM
11. Cc1cccc(-c2cc3nc(C(=O)O)nc(N[C@H](C)C4CCC4)c3n2Cc2ccc(C(F)(F)F)c(F)c2)c1 [Example 2.7, 4-{[(1R)-1-cyclobutylethyl]amino}-5-[3-fluoro-4-(trifluoromethyl)benzyl]-6-(3-methylphenyl)-5H-pyrrolo[3,2-d]pyrimidine-2-carboxylic acid]  87 nM
12. C[C@@H](Nc1nc(C(=O)O)nc2cc(-c3ccc4occc4c3)n(Cc3ccc(C(F)(F)F)cc3)c12)C1CCC1 [Example 1.6, 6-(1-benzofuran-5-yl)-4-{[(1R)-1-cyclobutylethyl]amino}-5-[4-(trifluoromethyl)benzyl]-5H-pyrrolo[3,2-d]pyrimidine-2-carboxylic acid]  105 nM
13. Cc1cccc(-c2cc3nc(C(=O)O)nc(N[C@H](C)C4CCC4)c3n2Cc2ccc(C)c(F)c2)c1 [Example 3.6, 4-{[(1R)-1-cyclobutylethyl]amino}-5-(3-fluoro-4-methylbenzyl)-6-(3-methylphenyl)-5H-pyrrolo[3,2-d]pyrimidine-2-carboxylic acid]  124 nM
14. Cc1cccc(-c2cc3nc(C(=O)O)nc(N[C@H](C)C4CCC4)c3n2Cc2ccc(F)c(F)c2)c1 [Example 3.5, 4-{[(1R)-1-cyclobutylethyl]amino}-5-(3,4-difluorobenzyl)-6-(3-methylphenyl)-5H-pyrrolo[3,2-d]pyrimidine-2-carboxylic acid]  126 nM
15. Cc1cccc(-c2c(C)c3nc(C(=O)O)nc(N[C@H](C)C4CCC4)c3n2Cc2ccc(C(F)(F)F)cc2)c1 [Example 1.4, (R)-4-((1-cyclobutylethyl)amino)-7-methyl-6-(m-tolyl)-5-(4-(trifluoromethyl)benzyl)-5H-pyrrolo[3,2-d]pyrimidine-2-carboxylic acid]  130 nM
16. Cc1cccc(-c2cc3nc(C(=O)O)nc(N[C@H](C)C4CCC4)c3n2Cc2ccc(C(F)(F)F)cc2)c1 [Example 1.3, (R)-4-((1-cyclobutylethyl)amino)-6-(m-tolyl)-5-(4-(trifluoromethyl)benzyl)-5H-pyrrolo[3,2-d]pyrimidine-2-carboxylic acid]  140 nM
17. Cc1cccc(-c2cc3nc(C(=O)O)nc(N[C@H](C)C4CCC4)c3n2Cc2ccc(C(F)(F)F)nc2)c1 [Example 3.3, 4-{[(1R)-1-cyclobutylethyl]amino}-6-(3-methylphenyl)-5-{[6-(trifluoromethyl)pyridin-3-yl]methyl}-5H-pyrrolo[3,2-d]pyrimidine-2-carboxylic acid]  178 nM
18. Cc1cccc(-c2cc3nc(C(=O)O)nc(N[C@H](C)C4CCC4)c3n2Cc2ccc(OC(F)(F)F)c(F)c2)c1 [Example 2.4, 4-{[(1R)-1-cyclobutylethyl]amino}-5-[3-fluoro-4-(trifluoromethoxy)benzyl]-6-(3-methylphenyl)-5H-pyrrolo[3,2-d]pyrimidine-2-carboxylic acid]  267 nM
19. C[C@H]1CC[C@H](Cn2ccc3nc(C(=O)O)nc(-c4cccc(Cl)c4)c32)CC1 [Example 4.1, 4-(3-chlorophenyl)-5-[(trans-4-methylcyclohexyl)methyl]-5H-pyrrolo[3,2-d]pyrimidine-2-carboxylic acid]  294 nM
20. Cc1cccc(-c2cc3nc(C(=O)O)nc(N[C@H](C)C4CCC4)c3n2Cc2ccc(OC(F)(F)F)cc2)c1 [Example 2.3, 4-{[(1R)-1-cyclobutylethyl]amino}-6-(3-methylphenyl)-5-[4-(trifluoromethoxy)benzyl]-5H-pyrrolo[3,2-d]pyrimidine-2-carboxylic acid]  348 nM
21. Cc1ccc(F)c(-c2cn(Cc3ccc(C(F)(F)F)cc3)c3c(N[C@H](C)C4CCC4)nc(C(=O)O)nc23)c1 [Example 1.2, (R)-4-((1-cyclobutylethyl)amino)-7-(2-fluoro-5-methylphenyl)-5-(4-(trifluoromethyl)benzyl)-5H-pyrrolo[3,2-d]pyrimidine-2-carboxylic acid]  353 nM
22. Cc1cccc(-c2cc3nc(C(=O)O)nc(N[C@H](C)C4CCC4)c3n2Cc2ccc(C(F)F)cc2)c1 [Example 3.2, 4-{[(1R)-1-cyclobutylethyl]amino}-5-[4-(difluoromethyl)benzyl]-6-(3-methylphenyl)-5H-pyrrolo[3,2-d]pyrimidine-2-carboxylic acid]  530 nM
23. Cc1ccc(Cl)c(-c2cn(Cc3ccc(C(F)(F)F)cc3)c3c(N[C@H](C)C4CCC4)nc(C(=O)O)nc23)c1 [Example 1.8, 7-(2-chloro-5-methylphenyl)-4-{[(1R)-1-cyclobutylethyl]amino}-5-[4-(trifluoromethyl)benzyl]-5H-pyrrolo[3,2-d]pyrimidine-2-carboxylic acid]  712 nM
24. Cc1cccc(-c2cc3nc(C(=O)O)nc(N[C@H](C)C4CCC4)c3n2Cc2ccc(C(F)(F)F)cn2)c1 [Example 2.2, 4-{[(1R)-1-cyclobutylethyl]amino}-6-(3-methylphenyl)-5-{[5-(trifluoromethyl)pyridin-2-yl]methyl}-5H-pyrrolo[3,2-d]pyrimidine-2-carboxylic acid]  844 nM
25. Cc1cccc(-c2cc3nc(C(=O)O)nc(N[C@H](C)C4CCC4)c3n2Cc2ccc(OC(F)F)cc2)c1 [Example 2.6, 4-{[(1R)-1-cyclobutylethyl]amino}-5-[4-(difluoromethoxy)benzyl]-6-(3-methylphenyl)-5H-pyrrolo[3,2-d]pyrimidine-2-carboxylic acid]  1780 nM
26. COc1cc(OC(F)(F)F)ccc1Cn1c(-c2cccc(C)c2)cc2nc(C(=O)O)nc(N[C@H](C)C3CCC3)c21 [Example 2.5, 4-{[(1R)-1-cyclobutylethyl]amino}-5-[2-methoxy-4-(trifluoromethoxy)benzyl]-6-(3-methylphenyl)-5H-pyrrolo[3,2-d]pyrimidine-2-carboxylic acid]  4370 nM
27. COc1ccc(Cn2c(-c3cccc(C)c3)cc3nc(C(=O)O)nc(N[C@H](C)C4CCC4)c32)cc1 [Example 2.8, 4-{[(1R)-1-cyclobutylethyl]amino}-5-(4-methoxybenzyl)-6-(3-methylphenyl)-5H-pyrrolo[3,2-d]pyrimidine-2-carboxylic acid]  6190 nM
